We go through five compounds from patent publication US12466839B2, “Allosteric AKT inhibitors for use in the treatment of Hereditary Hemorrhagic Telangiectasia” (VADERIS THERAPEUTICS AG, priority 2020, dated 2025).

Entries after “also recorded” stand apart in the source; their conditions may differ.

Data set [1] in a line: Pharmacokinetics (PK) profile in neonate mice. It counts as in vivo, mouse. On the procedure:
Terminal blood samples collected at 24 h and 48 h post injections were collected from each mouse under isoflurane anaesthesia for the preparation of plasma. 4 neonate mice were used per time point in the study. Blood was collected into EDTA coated microvettes (Sartsed) for plasma preparation. Blood was centrifuged at 2700×g for 10 minutes and approximately 30 to 40 μl plasma was removed and aliquoted into polypropylene tubes (two aliquots per animal). Plasma samples were stored at −80° C. until bioanalysis. VAD044 compound levels in plasma samples was determined by LC-MS/MS.

In data set [2] the test system is angiogenesis in C57Bl/6J mice retinas. In words: Neonatal retinal angiogenesis model in wild-type mice. Format: in vivo, mouse (C57Bl/6J). The note with it: for anti-angiogenic properties (overall conclusion): mouse retinas. An excerpt:
(§1) For the retinal vascular network, quantification of the number of AV shunts per mouse was done manually. […] A custom own-lab made macro allowed automatic processing of the images, using the same processing and quantification parameters. Briefly, the brightness of the images was enhanced by modifying the pixel extreme values, which depends on the specific image histogram content. A Gaussian filter was applied to reduce the intensity in homogeneities. The filter order depended on the image resolution. Next, the threshold step was computed, based on a global threshold technique such as Otsu's method or Li's method, resulting in binary image. A median filter was then applied to eliminate potential local irregularities, which could cause false branching point detection. From the binary images, the vascular density was quantified (calculated as the ratio of pixels associated with the vessels divided by the total number of pixels in the image). For the other parameters, a skeleton of the images was first computed using ImageJ, then the total vascular length was quantified using the Measure Skeleton Length plug-in from ImageJ. The number of branch points was extracted from the Analyze Skeleton plug-in of ImageJ. All results were transferred to Microsoft Office Excel software and automatically rearranged using a lab custom-made program. As all images generated at each step of the processing were saved, a visual control was made to ensure that there were no aberrant results.
(§2) Statistical analysis was performed with Prism 7 software (GraphPad). For most of the experiments, 1-way ANOVA was used for multiple comparisons. Results are expressed as mean±SEM. For post hoc pairwise, the Dunnett's test was used. A value of *P<0.05, **P<0.01, ***P<0.001 or ****P<0.0001 denotes statistical significance. An in-group variation of around 15% in parameters related to blood vessel architecture changes has been previously observed by the inventors, therefore a difference between controls and mutant mice of around 20-30% was anticipated. It was therefore expected that a group of 8 mice per condition would reveal statistical differences.
(§3) Eyes were fixed in 4% paraformaldehyde (PFA) in PBS at room temperature for 10 min, retinas were dissected, post-fixed in 4% PFA in PBS at 4° C. overnight then processed for immunostaining. Retinas were permeabilized in PBS, 1% BSA and 0.5% Triton X-100 at 4° C. overnight, rinsed in PBS, washed twice in PBlec (PBS, pH 6.8, 1% Triton-X-100, 0.1 mM CaCl2, 0.1 mM MgCl2, 0.1 mM MnCl2), and then incubated in biotinylated Griffonia simplicifolia lectin (isolectin B4) (B-1205, Vector Laboratories, 1:50) in PBlec at 4° C. overnight. After 5 washes in PBS, samples were incubated with streptavidin Cy-3 (PA43001, Sigma-Aldrich, 1:100) and with a-SMA (clone 1A4) (F3777, Sigma-Aldrich) conjugated with FITC diluted in PBS, 0.5% BSA, and 0.25% X-100 at 4° C. for 2 h. After washing, flat whole-mount retinas were mounted in DAKO medium (S3023, Dako). Complete high-resolution 3-dimensional rendering of whole-mount retinas was acquired using Laser Scanning Microscope SP5 or SP8 (Leica).

A short description of data set [3]: Pup lethality / adverse effects in Eng-iKO mice. It counts as in vivo. How it is done: The Eng Flox/flox; cdh5-CreERT2 were injected with tamoxifen (50 μg) at P2 to induce nearly […] The same volume of vehicle was injected serving as control animals. Mice were then euthanized at P7 and retinas processed for immunofluorescence staining as described (Lebrin et al., as above).
(§4) The same volume of vehicle was injected serving as control animals. Mice were then euthanized at P7 and retinas processed for immunofluorescence staining as described (Lebrin et al., as above).

Data set [4] is described as follows: Safety/toxicity profile in wild-type neonatal mice. An excerpt:
C57Bl/6J pregnant females were provided by Janvier Labs. EngFlox/flox mice (Mahmoud et al., (2010), “Pathogenesis of arteriovenous malformations in the absence of endoglin”, Circulation Research. https://doi.org/10.1161/[…].109.211037) were crossed with Cdh5(PAC)-CreERT2 (12) to generate endothelial specific inducible Eng knockout. Animal housing and procedures were in accordance with the Dutch Government guidelines and directive 2010/63/EU of the European Parliament. All efforts were made to minimize the number of animals used and their suffering. The institutional Committee for Animal Welfare of Leiden University Medical Center (project number AVD1160020171628) approved all protocols. Male and female mice were used during the first postnatal week to study retinal angiogenesis.
Retinas were processed for immunofluorescence staining as described (Lebrin et al., (2010), “Thalidomide stimulates vessel maturation and reduces epistaxis in individuals with hereditary hemorrhagic telangiectasia”, Nature Medicine. https://doi.org/10.1038/nm.2131).

The subject of data set [5] is AVM formation in Eng-iKO mice. The data set can be described thus: Prevention of AVM formation in Eng-iKO mice (retinal vascular network). Format: in vivo, mouse. On the procedure:
The Eng Flox/flox; cdh5-CreERT2 were injected with tamoxifen (50 μg) at P2 to […] once at P3, P4, P5 and P6. The same volume of vehicle was injected serving as control animals. Mice were then euthanized at P7 and retinas processed for immunofluorescence staining as described (Lebrin et al., as above).
as §4, §1, §2, §3

The test system of data set [6] is AKT kinase in Pi3Kα or PTEN mutant cells lines (e.g. MCF7, BT474 or LnCAP). The conditions noted are these: similar cell line; cited from earlier work.
Data set [7] relates to nosebleeds in HHT patients. The note with it: HHT patients (Lebrin et al.); cited from earlier work.
For data set [8], the target named is AKT2 (Homo sapiens, UniProt P31751). The data set can be described thus: Co-crystal structure in complex with AKT2. The conditions noted are these: 2.32 Å co-crystal structure with AKT2. Format: binding.
The mark [9] stands for this setting: once at P4, 5 to 25 mg·kg-1, i.p.

Sequence of AKT2 (P31751 whole entry): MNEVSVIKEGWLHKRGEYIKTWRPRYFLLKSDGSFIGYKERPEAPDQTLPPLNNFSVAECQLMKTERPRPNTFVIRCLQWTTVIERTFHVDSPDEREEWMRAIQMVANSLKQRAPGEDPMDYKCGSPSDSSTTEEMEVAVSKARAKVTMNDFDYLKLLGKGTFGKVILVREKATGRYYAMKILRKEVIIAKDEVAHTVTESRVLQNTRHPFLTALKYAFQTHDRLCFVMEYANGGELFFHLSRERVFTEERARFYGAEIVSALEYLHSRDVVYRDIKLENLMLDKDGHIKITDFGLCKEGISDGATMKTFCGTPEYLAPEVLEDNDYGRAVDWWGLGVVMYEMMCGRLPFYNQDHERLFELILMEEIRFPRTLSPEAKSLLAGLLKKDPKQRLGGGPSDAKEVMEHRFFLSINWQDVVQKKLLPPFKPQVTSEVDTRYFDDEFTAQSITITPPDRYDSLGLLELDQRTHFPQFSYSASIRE

Take `CCN1C(=O)COc2nc(-c3ccc([C@]4(N)C[C@@H](O)C4)cc3)c(-c3ccccc3)cc21` [VAD044 free base, 6-(4-(1-amino-3-hydroxycyclobutyl)phenyl)-1-ethyl-7-phenyl-1H-pyrido[2,3-b][1,4]oxazin-2(3H)-one]: the Cavg (effective concentration) in data set [1] was 22.9 ng/mL.

With `Cn1ncc(Cl)c1-c1cc(C(=O)N[C@H](CN)Cc2ccc(F)c(F)c2)oc1Cl` [Uprosertib], in data set [2], the “anti-angiogenic properties (overall conclusion)” value was “potent inhibitor of angiogenesis; also recorded: potent antiangiogenic properties”. Also, in data set [2] (setting [9]), the “number of branch points” value is listed as “marked decrease”, the radial expansion result is recorded as “slight decrease” and the vascular area entry was “marked decrease”. Moreover, the pups mortality entry in data set [3] (5 mg·kg−1 injected twice at P3 and P6) is reported as “high levels of pups mortality”. The pup death entry in data set [3] (Eng-iKO mice, 1 to 5 mg·kg−1 bodyweight) is recorded as “death of the majority of the pups”. Further, the pup death entry in data set [3] (Eng-iKO mice, two injections at P3 and P5) is “death of the majority of the pups”.

`CCCCCCCCCCCCCCCCCCOP(=O)([O-])OC1CC[N+](C)(C)CC1` [Perifosine]: the weight gain result in data set [4] (injected once at P4, 50 mg·kg-1) is recorded as “delayed weight gain”. The pup mortality entry in data set [4] (injected once at P4, 100 mg·kg-1) is given as “induced important pup mortality”. Besides, in data set [4] (injected once at P4, 5 to 25 mg·kg-1), the adverse effects result is reported as “No adverse effects”. Further, in data set [2], the “anti-angiogenic properties (overall conclusion)” value was “weak anti-angiogenic properties”. Moreover, in data set [2] (once at P4, 100 mg·kg-1), the vascular radial expansion result was “reduced vascular radial expansion”. Moreover, the effect on angiogenesis result in data set [2] (once at P4, 5 to 10 mg·kg-1) is “did not affect angiogenesis”. Also, the “number of branch points and vascular area of the retinal vascular bed” value in data set [2] (once at P4, 25 to 100 mg·kg-1) is “slight reduction”. Besides, the “prevention of AVM formation” value in data set [5] (Eng-iKO mice, 25 or 50 mg·kg-1 i.p at P3 and P5, or 10 mg·kg-1 daily P3 to P6) is “unable to prevent AVM formation”. For the same compound, the “inhibition of angiogenesis in Eng-iKO mice” value in data set [5] (Eng-iKO mice, doses and injection schemes tested) is “did not inhibit angiogenesis”. In addition, the “effects in shunt formation” value in data set [5] (HHT1 mouse model, 25 and 50 mg·kg-1) is recorded as “no significant effects”. Further, the “efficacy on shunt formation” value in data set [5] (injected every day at 10 mg·kg-1) is “trend for efficacy was observed but statistical significance was not achieved”. The pup death entry in data set [3] (daily intraperitoneal administration at 25 mg·kg-1) is “resulted in pup death”. In addition, the “cellular inhibitory activity on AKT” value in data set [6] is reported as “uM range”.

With `O=C1CCC(N2C(=O)c3ccccc3C2=O)C(=O)N1` (centres unmarked) [Thalidomide], the “severity and frequency of nosebleeds” value in data set [7] was “reduce the severity and frequency of nosebleeds”.

Consider `CCCN1C(=O)COc2nc(-c3ccc([C@]4(N)C[C@](C)(O)C4)cc3)c(-c3ccccc3)cc21` [Compound 6], for which the “binding site in co-crystal structure” value in data set [8] was “binds in an allosteric binding pocket”.
